Measured values published in patent publication US20220323406A1, “METHODS AND COMPOSITIONS FOR DIFFERENTIATING STEM CELLS” (Massachusetts Institute of Technology, priority 2019, published 2022).

Tests used:
[1] = tested on: ENR+CD organoids (ISC to Paneth cell differentiation); experiment: Primary screen: CCh-stimulated lysozyme secretion LYZ.S, 2.5-D 384-well ENR+CD organoid differentiation; format: cell-based, mouse; details: primary screen
Source text: (§1) High-throughput screening.

ENR+CD organoids = experiment: Primary screen: ATP (CellTiter-Glo 3D, CTG) cell number/viability, 2.5-D 384-well ENR+CD organoids;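 also: compounds given at plating and again on day 3 over a 6-day differentiation from ENR+CV stem-cell-enriched precursors, ATP measured on day 6, plate median as control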
[2] = tested on: ENR+CD organoids (ISC to Paneth cell differentiation); experiment: Primary screen: basal (non-stimulated) lysozyme secretion LYZ.NS, 2.5-D 384-well ENR+CD organoid differentiation; format: cell-based, mouse
Source text: as §1

[3] = dose 0.08 uM, FC vs plate median
[4] = dose 0.40 uM, FC vs plate median
[5] = dose 2.00 uM, FC vs plate median
[6] = dose 10.00 uM, FC vs plate median
[7] = primary screen, dose 0.08 uM, standard z score
[8] = primary screen, dose 0.40 uM, standard z score
[9] = primary screen, dose 2.00 uM, standard z score
[10] = primary screen, dose 10.00 uM, standard z score
[11] = primary screen; dose 0.08 uM; FC vs plate median
[12] = primary screen; dose 0.40 uM; FC vs plate median
[13] = primary screen; dose 2.00 uM; FC vs plate median
[14] = primary screen; dose 10.00 uM; FC vs plate median
[15] = primary screen, dose 0.08 uM, FC relative to plate median
[16] = primary screen, dose 0.40 uM, FC relative to plate median
[17] = primary screen, dose 2.00 uM, FC relative to plate median
[18] = primary screen, dose 10.00 uM, FC relative to plate median
[19] = primary screen, standard z score, dose 0.08 uM
[20] = primary screen, standard z score, dose 0.40 uM
[21] = primary screen, standard z score, dose 2.00 uM
[22] = primary screen, standard z score, dose 10.00 uM

Compound | Dose.FC.LYZ.S ([1]; dose 0.08 uM) [log2 fold change] | Dose.FC.LYZ.S ([1]; dose 0.40 uM) [log2 fold change] | Dose.FC.LYZ.S ([1]; dose 2.00 uM) [log2 fold change] | Dose.FC.LYZ.S ([1]; dose 10.00 uM) [log2 fold change] | Dose.FC.CTG (ENR+CD organoids; primary screen, dose 0.08 uM) [log2 fold change] | Z.CTG (standard z score) (ENR+CD organoids; primary screen, dose 0.08 uM) | Dose.FC.CTG (ENR+CD organoids; primary screen, dose 0.40 uM) [log2 fold change] | Z.CTG (standard z score) (ENR+CD organoids; primary screen, dose 0.40 uM) | Dose.FC.CTG (ENR+CD organoids; primary screen, dose 2.00 uM) [log2 fold change] | Z.CTG (standard z score) (ENR+CD organoids; primary screen, dose 2.00 uM) | Dose.FC.CTG (ENR+CD organoids; primary screen, dose 10.00 uM) [log2 fold change] | Z.CTG (standard z score) (ENR+CD organoids; primary screen, dose 10.00 uM) | Dose.FC.LYZ.NS ([2]; primary screen, dose 0.08 uM) [log2 fold change] | Z.LYZ.NS (standard z score) ([2]; primary screen, dose 0.08 uM) | Dose.FC.LYZ.NS ([2]; primary screen, dose 0.40 uM) [log2 fold change] | Z.LYZ.NS (standard z score) ([2]; primary screen, dose 0.40 uM) | Dose.FC.LYZ.NS ([2]; primary screen, dose 2.00 uM) [log2 fold change] | Z.LYZ.NS (standard z score) ([2]; primary screen, dose 2.00 uM) | Dose.FC.LYZ.NS ([2]; primary screen, dose 10.00 uM) [log2 fold change] | Z.LYZ.NS (standard z score) ([2]; primary screen, dose 10.00 uM) | other results
VU 0364439 | 0.108 | 0.124 | −0.043 | −0.038 | 0.024 | 0.058 | −0.121 | −0.289 | −0.258 | −0.616 | 0.009 | 0.022 | 0.082 | 0.715 | 0.011 | 0.099 | 0.010 | 0.089 | −0.055 | −0.476 | 
C/C(=N\NC(=S)N1CCC1)c1ccccn1 [NSC 319726] |  |  |  |  |  |  |  |  |  |  |  |  |  |  |  |  |  |  |  |  | Dose.FC.LYZ.S [1, 3]: 0.060 log2 fold change; Dose.FC.LYZ.S [1, 4]: −0.035 log2 fold change; Dose.FC.LYZ.S [1, 5]: −0.248 log2 fold change; Dose.FC.LYZ.S [1, 6]: −0.327 log2 fold change; Z.CTG (ENR+CD organoids; [7]): 0.316; Z.CTG (ENR+CD organoids; [8]): −0.441; Z.CTG (ENR+CD organoids; [9]): −1.068; Z.CTG (ENR+CD organoids; [10]): −4.555; Dose.FC.CTG (ENR+CD organoids; [11]): 0.132 log2 fold change; Dose.FC.CTG (ENR+CD organoids; [12]): −0.185 log2 fold change; Dose.FC.CTG (ENR+CD organoids; [13]): −0.447 log2 fold change; Dose.FC.CTG (ENR+CD organoids; [14]): −1.907 log2 fold change; Z.LYZ.NS [2, 7]: 0.982; Z.LYZ.NS [2, 8]: −0.780; Z.LYZ.NS [2, 9]: −1.323; Z.LYZ.NS [2, 10]: −1.992; Dose.FC.LYZ.NS [2, 11]: 0.113 log2 fold change; Dose.FC.LYZ.NS [2, 12]: −0.090 log2 fold change; Dose.FC.LYZ.NS [2, 13]: −0.152 log2 fold change; Dose.FC.LYZ.NS [2, 14]: −0.229 log2 fold change
CCC(=O)NCC[C@@H]1CCc2ccc3c(c21)CCO3 [Ramelteon] |  |  |  |  |  |  |  |  |  |  |  |  |  |  |  |  |  |  |  |  | Dose.FC.LYZ.S ([1]; dose 0.08 uM, FC relative to plate median): 0.030 log2 fold change; Dose.FC.LYZ.S ([1]; dose 0.40 uM, FC relative to plate median): 0.103 log2 fold change; Dose.FC.LYZ.S ([1]; dose 2.00 uM, FC relative to plate median): −0.009 log2 fold change; Dose.FC.LYZ.S ([1]; dose 10.00 uM, FC relative to plate median): 0.001 log2 fold change; Dose.FC.CTG (ENR+CD organoids; [15]): −0.028 log2 fold change; Dose.FC.CTG (ENR+CD organoids; [16]): 0.155 log2 fold change; Dose.FC.CTG (ENR+CD organoids; [17]): −0.315 log2 fold change; Dose.FC.CTG (ENR+CD organoids; [18]): 0.150 log2 fold change; Dose.FC.LYZ.NS [2, 15]: 0.062 log2 fold change; Z.LYZ.NS [2, 7]: 0.537; Dose.FC.LYZ.NS [2, 16]: 0.082 log2 fold change; Z.LYZ.NS [2, 8]: 0.712; Dose.FC.LYZ.NS [2, 17]: −0.013 log2 fold change; Z.LYZ.NS [2, 9]: −0.109; Dose.FC.LYZ.NS [2, 18]: 0.007 log2 fold change; Z.LYZ.NS [2, 10]: 0.062
CCC(=O)Nc1cccc(Oc2nc(Nc3ccc(N4CCN(C)CC4)cc3OC)ncc2Cl)c1 [WZ4003] | 0.117 | −0.034 | −0.035 | −0.142 | 0.375 | 0.896 | 0.173 | 0.413 | 0.076 | 0.180 | −0.018 | −0.043 | 0.074 | 0.644 | −0.041 | −0.359 | −0.017 | −0.151 | −0.098 | −0.850 | 
O=c1cc(N2CCOCC2)oc2c1ccc1ccccc12 [NU7026] |  |  |  |  |  |  |  |  |  |  |  |  |  |  |  |  |  |  |  |  | Dose.FC.LYZ.S [1, 3]: 0.021 log2 fold change; Dose.FC.LYZ.S [1, 4]: 0.034 log2 fold change; Dose.FC.LYZ.S [1, 5]: −0.056 log2 fold change; Dose.FC.LYZ.S [1, 6]: −0.198 log2 fold change; Z.CTG (ENR+CD organoids; [7]): 0.230; Z.CTG (ENR+CD organoids; [8]): 0.248; Z.CTG (ENR+CD organoids; [9]): 0.255; Z.CTG (ENR+CD organoids; [10]): −0.284; Dose.FC.CTG (ENR+CD organoids; [11]): 0.096 log2 fold change; Dose.FC.CTG (ENR+CD organoids; [12]): 0.104 log2 fold change; Dose.FC.CTG (ENR+CD organoids; [13]): 0.107 log2 fold change; Dose.FC.CTG (ENR+CD organoids; [14]): −0.119 log2 fold change; Z.LYZ.NS [2, 7]: 0.198; Z.LYZ.NS [2, 8]: 0.198; Z.LYZ.NS [2, 9]: −0.507; Z.LYZ.NS [2, 10]: −1.380; Dose.FC.LYZ.NS [2, 11]: 0.023 log2 fold change; Dose.FC.LYZ.NS [2, 12]: 0.023 log2 fold change; Dose.FC.LYZ.NS [2, 13]: −0.058 log2 fold change; Dose.FC.LYZ.NS [2, 14]: −0.158 log2 fold change
CC1(C)CCC(c2ccc(Cl)cc2)=C(CN2CCN(c3ccc(C(=O)NS(=O)(=O)c4ccc(N[C@H](CCN5CCOCC5)CSc5ccccc5)c(S(=O)(=O)C(F)(F)F)c4)cc3)CC2)C1 [ABT-263 (Navitoclax)] | −0.010 | −0.020 | −0.205 | −0.400 | −0.212 | −0.507 | −0.264 | −0.631 | −0.368 | −0.878 | −0.962 | −2.298 | 0.012 | 0.104 | 0.007 | 0.062 | −0.143 | −1.248 | −0.259 | −2.259 | 
O=c1cc(-c2ccc(O)cc2)oc2cc(O)cc(O)c12 [Apigenin] | 0.192 | 0.165 | 0.196 | 0.098 | 0.246 |  | 0.214 |  | 0.315 |  | 0.026 |  | 0.132 | 1.147 | 0.130 | 1.131 | 0.232 | 2.021 | 0.097 | 0.847 | 
O=C(Nc1cccc(Nc2ncc(Br)c(NCCc3cnc[nH]3)n2)c1)N1CCCC1 [BX-912] | 0.038 | 0.042 | −0.161 | −0.272 | 0.043 |  | 0.054 |  | −0.246 |  | −0.397 |  | 0.010 |  | 0.017 |  | −0.089 |  | −0.196 |  | Z.CTG (ENR+CD organoids; [19]): 0.103; Z.CTG (ENR+CD organoids; [20]): 0.129; Z.CTG (ENR+CD organoids; [21]): −0.587; Z.CTG (ENR+CD organoids; [22]): −0.949; Z.LYZ.NS [2, 19]: 0.090; Z.LYZ.NS [2, 20]: 0.151; Z.LYZ.NS [2, 21]: −0.771; Z.LYZ.NS [2, 22]: −1.704
CCCC(=O)Nc1cccc(NC(=O)c2ccccc2Br)c1 [ML161] |  |  |  |  |  |  |  |  |  |  |  |  |  |  |  |  |  |  |  |  | Dose.FC.LYZ.S [1, 3]: 0.017 log2 fold change; Dose.FC.LYZ.S [1, 4]: −0.027 log2 fold change; Dose.FC.LYZ.S [1, 5]: 0.024 log2 fold change; Dose.FC.LYZ.S [1, 6]: −0.066 log2 fold change; Z.CTG (ENR+CD organoids; [7]): 0.205; Z.CTG (ENR+CD organoids; [8]): 0.067; Z.CTG (ENR+CD organoids; [9]): 0.157; Z.CTG (ENR+CD organoids; [10]): −0.084; Dose.FC.CTG (ENR+CD organoids; [11]): 0.086 log2 fold change; Dose.FC.CTG (ENR+CD organoids; [12]): 0.028 log2 fold change; Dose.FC.CTG (ENR+CD organoids; [13]): 0.066 log2 fold change; Dose.FC.CTG (ENR+CD organoids; [14]): −0.035 log2 fold change; Z.LYZ.NS [2, 7]: 0.158; Z.LYZ.NS [2, 8]: −0.237; Z.LYZ.NS [2, 9]: 0.323; Z.LYZ.NS [2, 10]: −0.494; Dose.FC.LYZ.NS [2, 11]: 0.018 log2 fold change; Dose.FC.LYZ.NS [2, 12]: −0.027 log2 fold change; Dose.FC.LYZ.NS [2, 13]: 0.037 log2 fold change; Dose.FC.LYZ.NS [2, 14]: −0.057 log2 fold change
Cc1cc(-c2ccc(CC(=O)Nc3ccc(-c4cccnc4)cc3)cc2)ccn1 [Wnt-C59 (C59)] | −0.242 | −0.281 | −0.313 | −0.301 | −0.572 | −1.366 | −0.611 | −1.461 | −0.627 | −1.498 | −0.613 | −1.465 | −0.163 | −1.424 | −0.182 | −1.588 | −0.198 | −1.724 | −0.191 | −1.666 | 
